Assay results taken from the NIST ThermoML archive (doi:10.1016/j.jct.2012.02.033).

Experiments:
[1] = 101.33 kPa, Liquid, Vibrating tube method
[2] = xn = mol fraction of the nth substance listed; conditions: 101.3 kPa, Liquid, Vibrating tube method

CCNC=O [N-ethylformamide]
[1]
Conditions	mass density [kg/m3]
293.15 K	951.59
298.15 K	947.48
303.15 K	943.29
308.15 K	939.04
313.15 K	934.78

CCNC=O [N-ethylformamide] + C1CCOC1
mass density [kg/m3], [2]
Conditions	x1 = 0.1142	x1 = 0.2142	x1 = 0.3179	x1 = 0.4258	x1 = 0.5219	x1 = 0.6177	x1 = 0.7146	x1 = 0.8111	x1 = 0.9121
293.15 K	896.3	903.1	910.05	917.17	923.35	929.34	935.26	940.88	946.8
298.15 K	890.99	897.92	905.07	912.38	918.66	924.77	930.78	936.53	942.58
303.15 K	885.68	892.77	900.1	907.54	913.98	920.19	926.31	932.18	938.31
308.15 K	880.28	887.57	895.02	902.62	909.25	915.53	921.81	927.84	934.01
313.15 K	874.84	882.2	889.89	897.66	904.45	910.99	917.2	923.35	929.64

CCNC=O [N-ethylformamide] + CCC(C)=O
mass density [kg/m3], [2]
Conditions	x1 = 0.1242	x1 = 0.2302	x1 = 0.3384	x1 = 0.4407	x1 = 0.5398	x1 = 0.6369	x1 = 0.7317	x1 = 0.8186	x1 = 0.91
293.15 K	826.16	840.95	856.12	870.55	884.78	898.71	912.21	925	938.61
298.15 K	820.91	836.01	851.11	865.71	880.07	894.02	907.71	920.61	934.41
303.15 K	815.8	830.97	846.25	860.93	875.4	889.48	903.31	916.28	930.12
308.15 K	810.54	825.9	841.32	856.14	870.71	884.87	898.84	911.88	925.83
313.15 K	805.22	820.74	836.31	851.26	865.95	880.2	894.3	907.42	921.48
